Blank lines part the entries; values can stand above or below the compound they belong to.
Tests used:
KRAS G12C = KRAS G12C (Homo sapiens (Human), UniProt P01116, C118A/G12C); test: 2 h coupled exchange assay; type: biochemical; conditions: Avg 2 h Coupled exchange IC50, 2 h compound pre-incubation, SOS-mediated nucleotide exchange
Protocol: The term “2 h coupled exchange assay” or “20 h coupled exchange assay” as used herein refers to the assay described in the Section entitled “BIOLOGICAL EVALUATION.”

[1] = tested on: MIA PaCa-2 (human pancreatic carcinoma) cells; test: Cell Viability Assay (CellTiter-Glo), MIA PaCa-2; type: cell-based; conditions: Homo sapiens, MIA PaCa-2, 72 h
Protocol: Serially-diluted compound or DMSO was added to the cells, and plates were incubated at 37° C., 5% CO2 for 72 h. Cell viability was measured using a CellTiter-Glo® Luminescent Cell Viability Assay kit (Promega) according to the manufacturer's protocol. The luminescence signal of treated samples was normalized to DMSO control, and data were analyzed using a 4-parameter logistic model to calculate IC50 values.

[2] = tested on: A549 (human lung carcinoma) cells; test: Cell Viability Assay (CellTiter-Glo), A549; type: cell-based; conditions: Homo sapiens, A549, 72 h
In short: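 After a 72 h exposure to serial compound dilutions at 37° C, luminescent ATP content was measured with CellTiter-Glo. The cells were A549 or MIA PaCa-2, seeded at 1.67E+04 cells/mL in RPMI 1640 with 10% serum. Signals were normalized to DMSO controls and IC50 fitted with a 4-parameter logistic model.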

Sequence of KRAS G12C (P01116 other isoform, or with tags, fused parts or gaps G12C/C118A): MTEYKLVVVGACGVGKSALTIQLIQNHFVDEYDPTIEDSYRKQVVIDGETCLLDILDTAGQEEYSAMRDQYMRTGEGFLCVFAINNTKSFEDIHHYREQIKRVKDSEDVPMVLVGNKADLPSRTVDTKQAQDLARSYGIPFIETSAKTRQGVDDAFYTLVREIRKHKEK

Structure (SMILES): C=CC(=O)N1CC2(CCN(c3nc4c(c(-c5cc(O)ccc5Cl)n3)CCCC4)C2)C1 [Example 1-18, 1-(6-(4-(2-chloro-5-hydroxyphenyl)-5,6,7,8-tetrahydro-2-quinazolinyl)-2,6-diazaspiro[3.4]octan-2-yl)-2-propen-1-one]
IC50 (KRAS G12C): 8.46 µM | IC50 [1]: 8.67 µM | IC50 [2]: 9.46 µM

Structure (SMILES): C=CC(=O)N1CC2(CCN(c3nc4c(c(-c5cccc6cc(O)ccc56)n3)CCCC4)C2)C1 [Example 1-21, 1-(6-(4-(6-hydroxy-1-naphthalenyl)-5,6,7,8-tetrahydro-2-quinazolinyl)-2,6-diazaspiro[3.4]octan-2-yl)-2-propen-1-one]
IC50 (KRAS G12C): 0.435 µM | IC50 [1]: > 5 µM | IC50 [2]: > 5 µM

Structure (SMILES): C=CC(=O)N1CC2(CCN(c3nc(-c4cc(O)cc5ccccc45)c4ncc(C)cc4n3)C2)C1 [Example 1-22, 1-(6-(4-(3-hydroxy-1-naphthalenyl)-7-methylpyrido[3,2-d]pyrimidin-2-yl)-2,6-diazaspiro[3.4]octan-2-yl)-2-propen-1-one]
IC50 (KRAS G12C): 1.14 µM | IC50 [1]: 4.26 µM | IC50 [2]: > 25 µM

Structure (SMILES): C=CC(=O)N1CC2(CCN(c3nc4c(c(-c5cccc(C)c5C)n3)CCCC4)C2)C1 [Example 1-26, 1-(6-(4-(2,3-dimethylphenyl)-5,6,7,8-tetrahydro-2-quinazolinyl)-2,6-diazaspiro[3.4]octan-2-yl)-2-propen-1-one]
IC50 (KRAS G12C): 3.98 µM | IC50 [1]: 9.82 µM | IC50 [2]: 13.8 µM

Structure (SMILES): C=CC(=O)N1CC2(CCN(c3nc(-c4cccc5cccc(C)c45)c4c(n3)N(C)CCO4)C2)C1 [Example 1-28, 1-(6-(8-methyl-4-(8-methyl-1-naphthalenyl)-7,8-dihydro-6H-pyrimido[5,4-b][1,4]oxazin-2-yl)-2,6-diazaspiro[3.4]octan-2-yl)-2-propen-1-one]
IC50 (KRAS G12C): 2.98 µM | IC50 [1]: 9.36 µM | IC50 [2]: 11.5 µM

More lines, in order of falling IC50 (KRAS G12C), values ahead:

IC50 (KRAS G12C): 5.17 µM | IC50 [1]: 11.8 µM | IC50 [2]: 20.8 µM
Structure (SMILES): C=CC(=O)N1CC2(CCN(c3nc4c(c(-c5cccc(C)c5Cl)n3)CCCC4)C2)C1 [Example 1-27, 1-(6-(4-(2-chloro-3-methylphenyl)-5,6,7,8-tetrahydro-2-quinazolinyl)-2,6-diazaspiro[3.4]octan-2-yl)-2-propen-1-one]

IC50 (KRAS G12C): 4.25 µM | IC50 [1]: 8.29 µM | IC50 [2]: 10.6 µM
Structure (SMILES): C=CC(=O)N1CC2(CCN(c3nc4c(c(-c5cccc(Cl)c5Cl)n3)CCCC4)C2)C1 [Example 1-24, 1-(6-(4-(2,3-dichlorophenyl)-5,6,7,8-tetrahydro-2-quinazolinyl)-2,6-diazaspiro[3.4]octan-2-yl)-2-propen-1-one]

IC50 (KRAS G12C): 3.46 µM | IC50 [1]: > 5 µM | IC50 [2]: 10.3 µM
Structure (SMILES): C=CC(=O)N1CC2(CCN(c3nc4c(c(-c5cccc6cccc(C)c56)n3)CCC(C)(C)C4)C2)C1 [Example 1-30, 1-(6-(7,7-dimethyl-4-(8-methyl-1-naphthalenyl)-5,6,7,8-tetrahydro-2-quinazolinyl)-2,6-diazaspiro[3.4]octan-2-yl)-2-propen-1-one]

IC50 (KRAS G12C): 2.6 µM | IC50 [1]: 8.86 µM | IC50 [2]: 20.3 µM
Structure (SMILES): C=CC(=O)N1CC2(CCN(c3nc4c(c(-c5c(C)ccc6cnn(C)c56)n3)CCCC4)C2)C1 [Example 1-25, 1-(6-(4-(1,6-dimethyl-1H-indazol-7-yl)-5,6,7,8-tetrahydro-2-quinazolinyl)-2,6-diazaspiro[3.4]octan-2-yl)-2-propen-1-one]

IC50 (KRAS G12C): 1.22 µM | IC50 [1]: 5.27 µM | IC50 [2]: 10.5 µM
Structure (SMILES): C=CC(=O)N1CC2(CCN(c3nc4c(c(-c5cccc6sc(N)nc56)n3)CCCC4)C2)C1 [Example 1-23, 1-(6-(4-(2-amino-1,3-benzothiazol-4-yl)-5,6,7,8-tetrahydro-2-quinazolinyl)-2,6-diazaspiro[3,4]octan-2-yl)-2-propen-1-one]

IC50 (KRAS G12C): 0.075 µM | IC50 [1]: > 5 µM | IC50 [2]: > 5 µM
Structure (SMILES): C=CC(=O)N1CC2(CCN(c3nc4c(c(-c5cc(O)cc6ccccc56)n3)CCC(C)(C)C4)C2)C1 [Example 1-31, 1-(6-(4-(3-hydroxy-1-naphthalenyl)-7,7-dimethyl-5,6,7,8-tetrahydro-2-quinazolinyl)-2,6-diazaspiro[3.4]octan-2-yl)-2-propen-1-one]

Source: patent US20240059703A1 (AMGEN INC., priority 2021, published 2024)
